Experimental data from the NIST ThermoML archive (doi:10.1021/je5002126).

Legend:
[1] = xn = mol fraction of the nth substance listed; settings: for electrical conductivity / viscosity / mass density: 101 kPa, Liquid; for electrical conductivity: Alternating current cell with electrodes; for viscosity: Concentric cylinders viscometry; for mass density: Vibrating tube method; for surface tension liquid-gas: Ring tensiometer
[2] = refractive index (Na D-line) (dimensionless); xn = mol fraction of the nth substance listed; settings: 101 kPa, Liquid, Standard Abbe refractometry

CCCC[N+](CCCC)(CCCC)CCCC.[Cl-] [tetrabutylammonium chloride] + OCC(O)CO
Settings | electrical conductivity, [1] [S/m] | mass density, [1] [kg/m3] | refractive index, [2] | surface tension liquid-gas, [1] [mN/m] | viscosity, [1] [mPa·s]
293.15 K, x1 = 0.167 | 0.0162 | 1040 | 1.4781 | – | 1100
293.15 K, x1 = 0.2 | 0.0192 | 1029 | 1.4776 | – | 950
293.15 K, x1 = 0.25 | 0.017 | 1014 | 1.4802 | – | 1170
303.15 K, x1 = 0.167 | 0.0307 | 1034 | 1.4754 | 47.1 | 541.3
303.15 K, x1 = 0.2 | 0.0358 | 1023 | 1.4747 | 46.7 | 476.1
303.15 K, x1 = 0.25 | 0.0309 | 1008 | 1.4774 | 46 | 580
313.15 K, x1 = 0.167 | 0.0492 | 1027 | 1.4726 | 46.2 | 261
313.15 K, x1 = 0.2 | 0.0525 | 1017 | 1.4718 | 45.9 | 225
313.15 K, x1 = 0.25 | 0.0485 | 1001 | 1.4745 | 44.9 | 293.3
323.15 K, x1 = 0.167 | 0.0788 | 1020 | 1.4697 | 45.5 | 137.3
323.15 K, x1 = 0.2 | 0.0863 | 1010 | 1.4687 | 44.9 | 115.7
323.15 K, x1 = 0.25 | 0.0781 | 995 | 1.4716 | 44.1 | 157
333.15 K, x1 = 0.167 | 0.114 | 1014 | 1.4668 | 45 | 78.4
333.15 K, x1 = 0.2 | 0.131 | 1004 | 1.4658 | 44.1 | 64.7
333.15 K, x1 = 0.25 | 0.117 | 988 | 1.4685 | 43.4 | 90.7
343.15 K, x1 = 0.167 | 0.141 | 1007 | 1.4638 | 44.2 | 47.6
343.15 K, x1 = 0.2 | 0.182 | 997 | 1.4626 | 43.5 | 41.9
343.15 K, x1 = 0.25 | 0.151 | 982 | 1.4652 | 42.7 | 56.7
353.15 K, x1 = 0.167 | 0.222 | 1000 | 1.4607 | 43.5 | 32
353.15 K, x1 = 0.2 | 0.264 | 991 | 1.4603 | 42.9 | 25
353.15 K, x1 = 0.25 | 0.24 | 976 | 1.462 | 41.9 | 36.7

CCCC[N+](CCCC)(CCCC)CCCC.[Cl-] [tetrabutylammonium chloride] + OCCO
Settings | electrical conductivity, [1] [S/m] | mass density, [1] [kg/m3] | refractive index, [2] | surface tension liquid-gas, [1] [mN/m] | viscosity, [1] [mPa·s]
293.15 K, x1 = 0.2 | 0.000202 | 1145 | 1.4615 | – | 85.33
293.15 K, x1 = 0.25 | 0.000154 | 1130 | 1.4653 | – | 105
293.15 K, x1 = 0.333 | 9.91e-05 | 1105 | 1.4703 | – | 212
303.15 K, x1 = 0.2 | 0.000272 | 1138 | 1.4585 | 40.7 | 56.9
303.15 K, x1 = 0.25 | 0.000214 | 1123 | 1.4619 | 40.1 | 71.9
303.15 K, x1 = 0.333 | 0.000139 | 1099 | 1.4672 | 39.3 | 127
313.15 K, x1 = 0.2 | 0.000354 | 1132 | 1.4554 | 39.9 | 37.16
313.15 K, x1 = 0.25 | 0.000293 | 1117 | 1.4587 | 39.4 | 45.17
313.15 K, x1 = 0.333 | 0.00022 | 1092 | 1.4641 | 38.3 | 76.43
323.15 K, x1 = 0.2 | 0.00045 | 1125 | 1.4523 | 39.1 | 26.27
323.15 K, x1 = 0.25 | 0.000387 | 1110 | 1.4556 | 38.3 | 29.37
323.15 K, x1 = 0.333 | 0.00026 | 1086 | 1.4609 | 37.2 | 49.3
333.15 K, x1 = 0.2 | 0.000521 | 1119 | 1.4491 | 38.3 | 19.7
333.15 K, x1 = 0.25 | 0.000457 | 1104 | 1.4525 | 37.5 | 20.23
333.15 K, x1 = 0.333 | 0.000375 | 1079 | 1.4578 | 36.6 | 33.6
343.15 K, x1 = 0.2 | 0.000615 | 1112 | 1.445 | 37.5 | 14.85
343.15 K, x1 = 0.25 | 0.000567 | 1097 | 1.4495 | 36.8 | 14.53
343.15 K, x1 = 0.333 | 0.000385 | 1073 | 1.4545 | 35.7 | 23.53
353.15 K, x1 = 0.2 | 0.000722 | 1106 | 1.4427 | 36.8 | 10.5
353.15 K, x1 = 0.25 | 0.00062 | 1091 | 1.4469 | 36.1 | 10.7
353.15 K, x1 = 0.333 | 0.000468 | 1067 | 1.4509 | 34.9 | 16

CCCC[N+](CCCC)(CCCC)CCCC.[Cl-] [tetrabutylammonium chloride] + OCCOCCOCCO
Settings | electrical conductivity, [1] [S/m] | mass density, [1] [kg/m3] | refractive index, [2] | surface tension liquid-gas, [1] [mN/m] | viscosity, [1] [mPa·s]
293.15 K, x1 = 0.5 | 0.0139 | 1027 | 1.48 | – | 870
293.15 K, x1 = 0.667 | 0.00681 | 1007 | 1.4851 | – | –
293.15 K, x1 = 0.75 | 0.00221 | 996 | 1.4858 | – | –
293.15 K, x1 = 0.8 | 0.00178 | 990 | 1.4871 | – | –
303.15 K, x1 = 0.5 | 0.0228 | 1021 | 1.4772 | 40.6 | 543.8
303.15 K, x1 = 0.667 | 0.0149 | 1001 | 1.4821 | 40.1 | 1399
303.15 K, x1 = 0.75 | 0.005 | 990 | 1.4836 | 39.3 | –
303.15 K, x1 = 0.8 | 0.0047 | 985 | 1.4841 | 40 | 3265.3
313.15 K, x1 = 0.5 | 0.0376 | 1015 | 1.4742 | 39.5 | 289.4
313.15 K, x1 = 0.667 | 0.0284 | 995 | 1.479 | 38.6 | 952.2
313.15 K, x1 = 0.75 | 0.0097 | 984 | 1.4806 | 38.3 | 7031.7
313.15 K, x1 = 0.8 | 0.0108 | 980 | 1.4811 | 38.4 | 1900.4
323.15 K, x1 = 0.5 | 0.055 | 1009 | 1.4711 | 38.8 | 166.4
323.15 K, x1 = 0.667 | 0.0458 | 989 | 1.476 | 38 | 493
323.15 K, x1 = 0.75 | 0.0154 | 978 | 1.4777 | 37.2 | 909.1
323.15 K, x1 = 0.8 | 0.0214 | 973 | 1.4781 | 37.3 | 862.9
333.15 K, x1 = 0.5 | 0.0805 | 1003 | 1.4678 | 38.2 | 100.8
333.15 K, x1 = 0.667 | 0.0676 | 983 | 1.4731 | 37.4 | 264.1
333.15 K, x1 = 0.75 | 0.0217 | 972 | 1.4747 | 36.6 | 452.1
333.15 K, x1 = 0.8 | 0.0252 | 968 | 1.4752 | 36.5 | 411.2
343.15 K, x1 = 0.5 | 0.11 | 997 | 1.4646 | 37.6 | 68.1
343.15 K, x1 = 0.667 | 0.0842 | 976 | 1.4701 | 36.4 | 154
343.15 K, x1 = 0.75 | 0.0282 | 966 | 1.4717 | 35.7 | 244.7
343.15 K, x1 = 0.8 | 0.0262 | 961 | 1.4722 | 35.6 | 204.5
353.15 K, x1 = 0.5 | 0.147 | 991 | 1.4614 | 37 | 44.7
353.15 K, x1 = 0.667 | 0.092 | 970 | 1.4673 | 35.6 | 91.3
353.15 K, x1 = 0.75 | 0.0319 | 960 | 1.4686 | 34.9 | 155.6
353.15 K, x1 = 0.8 | 0.0273 | 955 | 1.4692 | 34.6 | 99.9
